In patent US20090075941A1, “TREATING NEOPLASMS” (THE UAB RESEARCH FOUNDATION, priority 2006, published 2009):

What was measured:
[1] = Tumor uptake of Tc99m-medronate, biodistribution; type: in vivo; details: nude mice, i.v.
Method: Tumor uptake of Tc99m-medronate. To investigate accumulation of the bone scanning agent (Tc99m-medronate) into the subcutaneous tumors, nude mice were first inoculated subcutaneously with AB-12 or MDA-MB-231 cells (10^6 cells in 100 μl of sterile PBS) and the tumors were allowed to form for 3-4 weeks. Tc99m-medronate (MDP-Bracco™; Bracco Diagnostics Inc.; Princeton, N.J.) was then injected into the tail veins of the mice (˜800-1000 μCi per mouse) in 100 μl. High-resolution pinhole SPECT/CT imaging studies (X-SPECT system, GammaMedica, Inc.; Northridge, Calif.) and biodistribution analyses were performed in nude mice with xenografted rumors to measure in vivo tumor retention of Tc99 medronate following i.v. injection. For SPECT imaging, a total of 64 projections were acquired with a 30-sec acquisition time per projection, using a pinhole collimator with a 1-mm tungsten pinhole insert. […] The dose retention, or % Injected Dose per gram, (% ID/g) of each tissue was calculated by measuring the radioactivity in the tissue using a gamma counter, decay correcting the count rate data to the Tc99m-medronate injection time and normalizing to the total injected dose in the animal as well as the tissue weight. Each animal's dose was determined by measuring the dosing syringe (AtomLab 100 dose calibrator; Biodex Medical Systems; Shirley, N.Y.) before and after injecting the mouse. […]

[2] = system: unprenylated Rap1A in AB-12 mesothelioma cells; experiment: Western blot, unprenylated Rap1A (Example 2); type: cell-based, mouse; details: AB-12 cells, 24 h; for effect on nitrogen-containing bisphosphonate-induced accumulation of unprenylated Rap1A: pyrophosphate-resembling : nitrogen-containing bisphosphonate ratio 100:1
Method: (§1) Western blot analysis. Cells were cultured on 6-well plates in normal culture medium until near confluency. The cells were then rinsed with sterile PBS and cultured for further 24 h in serum-tree culture medium, in the presence or absence of the indicated bisphosphonates. Some cultures were also treated with 25 μM geranylgeraniol (cold, all trans), 1.0 μg/ml LPS (Sigma; St. Louis, Mo.) 10 ng/ml IL-1β (R&D Systems; Minneapolis, Minn.) or TNF-α (R&D Systems). To study bisphosphonate effects on connexin-43 expression, the cells were cultured for 24 h in serum-free culture medium in the presence of the indicated bisphosphonates or PBS as a vehicle control. Culture medium was then discarded, the cells were quickly lysed and prepared into Western blot samples, as described in Merrell et al. (2000) Breast Cancer Res. Treat. 81, 231-241. After boiling the supernatants in reducing sodium docedyl sulfate (SDS) sample buffer, equal amounts of protein (˜20-50 μg) were loaded per lane and the samples were electrophoresed on 10% SDS polyacrylamide gel and transferred to a nitrocellulose membrane. To detect, unprenylated Rap1A, the blots were incubated overnight at 4° C. with the antibody SC-1482 (Santa Cruz Technology (San Diego, Calif.)), diluted 1:1000 in Tris-buffered saline, 0.1% (v/v) Tween-20 (TEST), and then with peroxidase-conjugated anti-goat serum (Pierce; Rockford, Ill.), diluted 1:1000 in TBST. Total Rap1 was detected from stripped blots in a similar fashion, with the antibody SC-65 (Santa Cruz Technology). The phosphorylation status of p38 was investigated using anti-phospho-p38 (Cell Signaling; Beverly, Mass.) and after stripping of the membrane, with anti-total p38 antibodies (Cell Signaling), according to the manufacturer's instructions. Expression of connexin-43 was detected with a rabbit anti-connexin-43 antibody (Zymed Laboratories, Inc.; San Francisco, Calif.), diluted 1:1000 in TBST. The protein bands were visualized by chemiluminescence using SuperSignal West Pico ECL kit (Pierce Biotechnology, Inc.; Rockford, Ill.).

[3] = system: unprenylated Rap1A in MDA-MB-231 breast cancer cells; experiment: Western blot, unprenylated Rap1A (Example 2); type: cell-based, human; details: MDA-MB-231 cells, 24 h; for effect on alendronate-induced accumulation of unprenylated Rap1A: 10^−4 M alendronate plus clodronate 10^−3 M, geranylgeraniol 25 μM, or cytokines/LPS
Method: as §1

MDA-MB-231 cells = experiment: Cell viability, MTS-assay; type: cell-based, human; details: for effect of added Ca2+ on the bisphosphonate's growth inhibitory effect: 1 mM CaCl2, N-BP 10^−4 M or p-BP 10^−3 M
Method: (§2) Cell viability assays. Cells were plated on 96-well plates at the density of 1×10^3 cells in 100 μl per well in normal culture medium, with or without of the indicated concentrations of the various bisphosphonate combinations and or 1 mM CaCl2, 1 mM EGTA or vehicle and cultured for 48 h. Cell viability was assessed with 3-(4,5-dimethylthiazol-2-yl)-5-(3-carboxy tetrazolium, inner salt (MTS)-assays (CellTiter Aqueous One 96 from Promega; Madison, Wis.) according to the manufacturer's instructions. For each treatment, a PBS-control group was run simultaneously on the same plate. The results for each treatment were calculated as % of the corresponding PBS-group.

AB-12 cells = experiment: Cell viability, MTS-assay; type: cell-based, mouse; details: for effect of added Ca2+ on the bisphosphonate's growth inhibitory effect: 1 mM CaCl2, N-BP 10^−4 M or p-BP 10^−3 M
Method: as §2

J774 cells = experiment: Cell viability, MTS-assay; type: cell-based; details: for effect of added EGTA on the bisphosphonate's growth inhibitory effect: 1 mM EGTA, N-BP 10^−4 M or clodronate 10^−3 M
Method: as §2

[4] = system: p38 phosphorylation in AB-12 cells; experiment: Western blot, phosphorylation of p38 (Example 2); type: cell-based, mouse; details: excess, added simultaneously
Method: as §1, with “To detect, unprenylated Rap1A, the blots were incubated overnight at 4° C. with the antibody SC-1482 (Santa Cruz Technology (San Diego, Calif.)), diluted 1:1000 in Tris-buffered saline, 0.1% (v/v) Tween-20 (TEST), and then with peroxidase-conjugated anti-goat serum (Pierce; Rockford, Ill.), diluted 1:1000 in TBST.” left out, “The phosphorylation status of p38 was investigated using anti-phospho-p38 (Cell Signaling; Beverly, Mass.) and after stripping of the membrane, with anti-total p38 antibodies (Cell Signaling), according to the manufacturer's instructions.” left out, “The protein bands were visualized by chemiluminescence using SuperSignal West Pico ECL kit (Pierce Biotechnology, Inc.; Rockford, Ill.).” left out

[5] = system: p38 phosphorylation in MDA-MB-231 cells; experiment: Western blot, phosphorylation of p38 (Example 2); type: cell-based, human; details: 10^−3 M
Method: as §1, with “To detect, unprenylated Rap1A, the blots were incubated overnight at 4° C. with the antibody SC-1482 (Santa Cruz Technology (San Diego, Calif.)), diluted 1:1000 in Tris-buffered saline, 0.1% (v/v) Tween-20 (TEST), and then with peroxidase-conjugated anti-goat serum (Pierce; Rockford, Ill.), diluted 1:1000 in TBST.” left out, “The phosphorylation status of p38 was investigated using anti-phospho-p38 (Cell Signaling; Beverly, Mass.) and after stripping of the membrane, with anti-total p38 antibodies (Cell Signaling), according to the manufacturer's instructions.” left out, “The protein bands were visualized by chemiluminescence using SuperSignal West Pico ECL kit (Pierce Biotechnology, Inc.; Rockford, Ill.).” left out

Molecule: O=P(O)(O)CP(=O)(O)O [Tc99m-medronate, metal not drawn]
- tissue with the highest accumulation: bones ([1]; % dose retention in various tissues): highest proportion
- accumulation (% dose retention) in AB-12 mesothelioma tumors compared with MDA-MB-231 breast cancer tumors ([1]; tissues ~8 h after injection, % ID/g normalized to blood, P<0.05): significantly higher

Molecule: NCCCC(O)(P(=O)(O)O)P(=O)(O)O [alendronate]
- accumulation of unprenylated Rap1A [2]: dose-dependent accumulation
- accumulation of unprenylated Rap1A [3]: dose-dependent accumulation
- effect of added EGTA on the bisphosphonate's growth inhibitory effect (MDA-MB-231 cells; 1 mM EGTA, N-BP 10^−4 M): reversed
- cell viability (MDA-MB-231 cells; 10^−4 M, P<0.001): significant decrease in cell viability
- effect of added EGTA on the bisphosphonate's growth inhibitory effect (AB-12 cells; 1 mM EGTA, N-BP 10^−4 M): reversed
- cell viability (AB-12 cells; 10^−4 M, P<0.001): significant decrease in cell viability
- effect of added EGTA on the bisphosphonate's growth inhibitory effect (J774 cells): reversed

Molecule: O=P(O)(O)C(Cl)(Cl)P(=O)(O)O [clodronate]
- accumulation of unprenylated Rap1A [2]: no effect
- effect on nitrogen-containing bisphosphonate-induced accumulation of unprenylated Rap1A [2]: completely blocked
- effect on alendronate-induced accumulation of unprenylated Rap1A [3]: reduced
- accumulation of unprenylated Rap1A [3]: no effect
- effect on nitrogen-containing bisphosphonate (risedronate or zoledronate)-induced p38 phosphorylation [4]: blocked
- effect on zoledronate-induced (10^−4 M) p38 phosphorylation [5]: blocked
- effect of added Ca2+ on the bisphosphonate's growth inhibitory effect (MDA-MB-231 cells): not
- effect of added Ca2+ on the bisphosphonate's growth inhibitory effect (AB-12 cells): augmented
- effect of added EGTA on the bisphosphonate's growth inhibitory effect (J774 cells): reversed
- cell viability (J774 cells; 10^−3 M alone, P<0.001 vs PBS-control): highest sensitivity
- cell viability in combination with 1 mM CaCl2 (J774 cells; clodronate 10^−3 M + 1 mM CaCl2): toxic

Molecule: CC(O)(P(=O)(O)O)P(=O)(O)O [etidronate]
- accumulation of unprenylated Rap1A [2]: no effect
- effect on nitrogen-containing bisphosphonate-induced accumulation of unprenylated Rap1A [2]: completely blocked
- accumulation of unprenylated Rap1A [3]: no effect
- effect on nitrogen-containing bisphosphonate (risedronate or zoledronate)-induced p38 phosphorylation [4]: blocked
- effect on zoledronate-induced (10^−4 M) p38 phosphorylation [5]: blocked
- effect of added Ca2+ on the bisphosphonate's growth inhibitory effect (MDA-MB-231 cells): not
- effect of added Ca2+ on the bisphosphonate's growth inhibitory effect (AB-12 cells): augmented

Molecule: CC(C)=CCC/C(C)=C/CC/C(C)=C/CC/C(C)=C/CO [geranylgeraniol]
- effect on alendronate-induced accumulation of unprenylated Rap1A [3]: reduced

Molecule: IL-1β: cytokine (R&D Systems), molecule completely unrelated to bisphosphonates
- effect on alendronate-induced accumulation of unprenylated Rap1A [3]: not blocked

Molecule: TNF-α
- effect on alendronate-induced accumulation of unprenylated Rap1A [3]: not blocked
